Results published in PMC5823406, “Vehicle development, pharmacokinetics and toxicity of the anti-invasive agent 4-fluoro-3’,4’,5’-trimethoxychalcone in rodents” (PLoS ONE, 2018).

Assays:
mouse = tested on: mouse; design: method as in PMID 4962802, PMID 6379027; details: PO; cited from earlier work
Whole blood stability = type: in vitro ADME, rat; details: fresh whole blood, male Sprague-Dawley rat blood, read-out: Compound remaining (% of 0 min)
Protocol: C16 (1 μM) or vehicle (DMSO) were incubated with fresh rat blood (Sprague Dawley, male) at 37°C at 5 time points in duplicate over a 120-min period. The final DMSO concentration in the incubation was 0.25%. Reactions were terminated following 0, 15, 30, 60 and 120 min by acetonitrile containing internal standard. The sampling plate was centrifuged (3000 rpm, 45 min, 4 °C) and the supernatants from each time point analyzed for parent compound by HPLC-MS/MS. The percentage of parent compound remaining at each time point relative to the 0-min sample was then calculated from HPLC-MS/MS peak area ratios (compound peak area/internal standard peak area).
C. Stability and metabolism
For details on ADME experiments not included underneath , please consult ref. [1].
C.A. Whole blood stability
Column: Kinetex XB-C18 column, 2.6 µm (150 x2.1 mm)
Mobile phase A: H2O + 0.1% v/v Formic Acid
Mobile phase B: MeCN + 0.1% v/v Formic Acid
Autosampler syringe volume: 100 µL
Weak wash: MeOH:H2O 1:9 v/v
Strong wash: MeOH:H2O 95:5 v/v
Table K. Gradient program.
Mass spectrometric conditions
Model: AB Sciex API5500 QTrap
Mode: Multiple ion monitoring (MIM)
Table L. MIM (parent to parent transitions).
The areas and percentages for the parent and metabolites have been calculated using MIM data where parent to parent transitions have been used, and assume that each metabolite has the same point of ionisation and the sensitivity of the metabolite has not been affected by the biotransformation.

SMILES | LD50 (mouse) [mg/kg] | remaining at 15 min, 1 µM (Whole blood stability; 15 min) [%] | remaining at 30 min, 1 µM (Whole blood stability; 30 min) [%] | remaining at 60 min, 1 µM (Whole blood stability; 60 min) [%] | remaining at 120 min, 1 µM (Whole blood stability; 120 min) [%]
C[S+](C)[O-] [DMSO, dimethyl sulfoxide] | 21000 to 28000 | – | – | – | –
COc1ccc([C@@H]2Sc3ccccc3N(CCN(C)C)C(=O)[C@@H]2OC(C)=O)cc1 [diltiazem, reference compound] | – | 99.9 | 91.1 | 74.3 | 45.5
